Earlier results, collected in patent US20080318886A1, “Methods of Increasing Cancer Sensitivity to Chemotherapeutic Agents Using Chimeric ISF35” (priority 2006, published 2008).

System: CLL
Settings: CLL patients, first line treatment

In the case of Nc1nc(F)nc2c1ncn2[C@@H]1O[C@H](CO)[C@@H](O)[C@@H]1O [Fludaribine], the overall response rate is listed as ~70%.
